This is an account of results in US8986677B2, “Therapeutic compositions and methods” (Pop Test Cortisol LLC, priority 2012, dated 2015).

The target of one data set is T1, progesterone receptor (Homo sapiens, UniProt P06401).
T1 sequence (P06401 1-933): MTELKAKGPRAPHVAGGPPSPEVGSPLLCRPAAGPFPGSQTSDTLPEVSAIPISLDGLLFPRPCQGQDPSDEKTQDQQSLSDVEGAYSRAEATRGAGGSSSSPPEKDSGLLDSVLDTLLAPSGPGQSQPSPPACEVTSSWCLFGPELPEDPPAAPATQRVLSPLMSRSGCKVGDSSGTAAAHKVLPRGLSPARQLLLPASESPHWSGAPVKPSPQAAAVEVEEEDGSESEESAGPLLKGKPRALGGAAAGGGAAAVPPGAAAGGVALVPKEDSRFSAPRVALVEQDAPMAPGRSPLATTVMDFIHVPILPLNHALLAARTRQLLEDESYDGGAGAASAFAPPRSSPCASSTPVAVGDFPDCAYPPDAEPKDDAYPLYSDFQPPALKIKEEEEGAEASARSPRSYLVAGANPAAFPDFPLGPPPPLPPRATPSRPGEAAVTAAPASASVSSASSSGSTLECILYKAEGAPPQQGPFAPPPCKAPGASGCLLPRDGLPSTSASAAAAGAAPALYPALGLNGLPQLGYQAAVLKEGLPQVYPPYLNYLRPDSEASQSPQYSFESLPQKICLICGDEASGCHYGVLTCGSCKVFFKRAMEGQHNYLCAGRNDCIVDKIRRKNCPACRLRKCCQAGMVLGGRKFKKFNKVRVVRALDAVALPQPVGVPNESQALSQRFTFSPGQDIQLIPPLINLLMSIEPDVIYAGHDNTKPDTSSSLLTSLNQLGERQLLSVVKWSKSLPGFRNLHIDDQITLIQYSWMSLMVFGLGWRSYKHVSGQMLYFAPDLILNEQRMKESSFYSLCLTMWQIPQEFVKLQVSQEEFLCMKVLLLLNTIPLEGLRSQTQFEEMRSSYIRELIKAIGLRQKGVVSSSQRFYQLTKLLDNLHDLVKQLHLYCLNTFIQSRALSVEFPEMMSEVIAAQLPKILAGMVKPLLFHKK
As to conditions: cited from earlier work.

The conditions of data set [1]: all phase I and phase II clinical trials performed with the compound; cited from earlier work.
In data set [2] the test system is organotypic hippocampal slice cultures, CA1 region pyramidal cells. In words: Ethanol withdrawal toxicity (propidium iodide uptake) in organotypic hippocampal slice cultures. It counts as cell-based. An excerpt:
(FIG. 2A). […] Co-exposure to the selective glucocorticoid receptor antagonist ORG 34517 with ethanol and corticosterone prevented this withdrawal toxicity. Representative PI images above, (FIG. 2B). Results shown in graph form. *=P<0.05 vs control; **=P<0.05 vs EtOH WD+CORT.
Corticosterone's exacerbation of ethanol withdrawal toxicity is blocked by […] coadministration. […] (FIG. 2). […] Co-exposure to the selective glucocorticoid receptor antagonist ORG 34517 with ethanol and corticosterone prevented this withdrawal toxicity. Representative PI images above, graphed below. *=P<0.05 vs control; **=P<0.05 vs EtOH WD+CORT.

A further data set concerns the target T2, glucocorticoid receptor (Homo sapiens, UniProt P04150).
T2 sequence (P04150 1-777): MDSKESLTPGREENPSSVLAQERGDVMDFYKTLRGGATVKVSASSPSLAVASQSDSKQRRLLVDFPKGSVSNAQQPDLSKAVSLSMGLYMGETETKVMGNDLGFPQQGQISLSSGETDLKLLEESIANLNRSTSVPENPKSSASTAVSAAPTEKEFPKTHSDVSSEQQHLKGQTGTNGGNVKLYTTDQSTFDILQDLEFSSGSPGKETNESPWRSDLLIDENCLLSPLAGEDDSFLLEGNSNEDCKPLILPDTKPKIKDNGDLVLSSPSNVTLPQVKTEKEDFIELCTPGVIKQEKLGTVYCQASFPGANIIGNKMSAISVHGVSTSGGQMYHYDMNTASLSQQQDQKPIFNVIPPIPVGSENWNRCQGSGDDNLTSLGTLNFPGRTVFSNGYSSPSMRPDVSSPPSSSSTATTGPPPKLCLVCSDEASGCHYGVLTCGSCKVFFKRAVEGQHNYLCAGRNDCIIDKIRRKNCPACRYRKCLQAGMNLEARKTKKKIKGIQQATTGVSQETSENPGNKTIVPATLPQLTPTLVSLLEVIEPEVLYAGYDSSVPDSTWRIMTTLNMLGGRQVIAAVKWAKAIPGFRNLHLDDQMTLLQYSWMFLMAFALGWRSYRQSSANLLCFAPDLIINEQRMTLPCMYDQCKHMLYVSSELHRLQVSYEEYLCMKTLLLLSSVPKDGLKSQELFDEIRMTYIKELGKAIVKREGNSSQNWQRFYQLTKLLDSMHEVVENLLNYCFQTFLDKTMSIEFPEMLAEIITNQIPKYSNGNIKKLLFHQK
As to conditions: cited from earlier work.

The target in a further data set is T3, estrogen receptor (Homo sapiens, UniProt P03372).
T3 sequence (P03372 1-595): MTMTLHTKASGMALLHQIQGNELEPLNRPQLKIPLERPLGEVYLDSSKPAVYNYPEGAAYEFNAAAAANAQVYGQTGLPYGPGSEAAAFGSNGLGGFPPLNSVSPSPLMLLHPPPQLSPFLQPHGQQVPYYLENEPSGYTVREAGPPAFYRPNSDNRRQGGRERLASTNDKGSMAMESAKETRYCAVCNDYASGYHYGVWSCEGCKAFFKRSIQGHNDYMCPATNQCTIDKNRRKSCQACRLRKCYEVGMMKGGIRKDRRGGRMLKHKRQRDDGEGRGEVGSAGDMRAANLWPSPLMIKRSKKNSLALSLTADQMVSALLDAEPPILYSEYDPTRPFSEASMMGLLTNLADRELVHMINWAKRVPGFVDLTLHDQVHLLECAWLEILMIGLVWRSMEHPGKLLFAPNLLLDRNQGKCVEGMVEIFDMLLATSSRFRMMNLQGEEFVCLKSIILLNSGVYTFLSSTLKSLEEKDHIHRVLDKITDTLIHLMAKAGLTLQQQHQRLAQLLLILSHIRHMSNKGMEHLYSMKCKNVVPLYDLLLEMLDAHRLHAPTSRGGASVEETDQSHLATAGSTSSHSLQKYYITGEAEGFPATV
As to conditions: cited from earlier work.

As for `CC#C[C@]1(O)CC[C@H]2[C@@H]3CCC4=CC(=O)CCC4=C3[C@@H](c3ccc4c(c3)OCO4)C[C@@]21C` [ORG 34517, (11β,17β)-11-(1,3-benzodioxol-5-yl)-17-hydroxy-17-(1-propynyl)estra-4,9-dien-3-one], on progesterone receptor, the “cross-binding / affinity for progesterone receptor” value is given as “without significant cross-binding”. In addition, in data set [1], the “significant toxicities and side effects” value was “none were identified”. The “ethanol withdrawal toxicity (propidium iodide uptake, CA1 region)” value in data set [2] (co-exposure with ethanol (50 mM) and corticosterone (1 μM), 1 day of ethanol withdrawal, P<0.05 vs EtOH WD+CORT) is reported as “prevented”. The “glucocorticoid receptor binding affinity” value at glucocorticoid receptor is on record as “high”. Further, the “behavioral symptoms of the ethanol withdrawal syndrome” value in the data set with adult male rats (20 mg/kg s.c. once daily immediately prior to binge ethanol (i.g.) at 0800 hrs on 4 consecutive days, adult male rats, P<0.001 vs EtOH WD) is listed as “significantly reduced”. Moreover, in the data set on adult male rats (20 mg/kg s.c. once daily prior to binge ethanol, 4 days, adult male rats), the “reductions in whole body tremor and wet shakes” value is listed as “most evident”. For the same molecule, the “behavior of ethanol-naïve rats” value in the data set on adult male rats (rat, in vivo) is “did not alter behavior in any manner”. In addition, the “cross-binding / affinity for estrogen receptor” value on estrogen receptor is on record as “without significant cross-binding”.
In the case of `C[C@]12C[C@H](O)[C@H]3[C@@H](CCC4=CC(=O)CC[C@@]43C)[C@@H]1CC[C@@H]2C(=O)CO` [corticosterone], the “toxicity (propidium iodide uptake) in CA1 region pyramidal cells” value in data set [2] (corticosterone 1 μM with ethanol 50 mM, then 1 day of ethanol withdrawal in the presence of corticosterone) is “significant toxicity”. In data set [2] (corticosterone alone), the “propidium iodide uptake, exposure alone” value is “did not alter”.
With `CCO` [ethanol], the “peak blood ethanol levels” value with adult male rats (male, rat, in vivo, 4 days) is recorded as 180.27-103.5.
